Tested on: SARS-CoV-2 spike RBD
Test: Spike RBD-mCRP binding ELISA
Conditions: His-tagged proteins expressed in E. coli, n = 3
Experimental: The interactions of the spike-RBD with mCRP or CRP were also examined by enzyme-linked immunosorbent assay (ELISA) using mCRP/CRP-specific mAbs. Briefly, 100 μL of spike-RBD (1μg/mL) in Tris-buffered saline (TBS; 10 mM Tris, 140 mM NaCl, pH 7.4) was added per well to coat in 96-well microplates overnight at 4°C. The wells were then washed three times with TBS containing 0.02% Tween-20 for 5 min and blocked with 1% bovine serum albumin (BSA) in TBS for 1 h at 37°C. Next, mCRP was added and the plates were incubated for 1 h at 37°C. The color was developed by adding tetramethyl benzidine (TMB) to the wells and the color development was stopped with 1 M H2SO4.

WT mCRP
binding of mCRP wild type or mutants to the spike RBD (ELISA): bound

From paper PMC9304929, “The Cholesterol-Binding Sequence in Monomeric C-Reactive Protein Binds to the SARS-CoV-2 Spike Receptor-Binding Domain and Blocks Interaction With Angiotensin-Converting Enzyme 2” (Frontiers in Immunology, 2022)
